Like-named read-outs stand apart in the source and are kept apart here. Marks after values point to notes of the source that are not given here.
Columns and labels:
[1] = format: in vitro ADME, murine; settings: 1 h
Protocol: (§1) To evaluate the label’s stability, 10 μL (0.25 μg) of radiolabeled conjugates was incubated with 300× molar excess of cysteine or with PBS for 1 h at room temperature. The test was run in triplicate. The release of free technetium-99m was controlled by using iTLC and radio-HPLC analysis. The stability in serum was analyzed by mixing the radioconjugates (0.25 μg in 10 μL) with murine serum or PBS (40 μL) as a control. The samples were incubated for 1 h at 37 °C and analyzed by iTLC. The experiment was performed in triplicate. The octanol–water distribution coefficient (Log D) was determined experimentally by the addition of 100 pmol of the radiolabeled tracer to an Eppendorf tube containing PBS (500 μL) and n-octanol (500 μL), pH ∼ 7.4. The solution was vortexed and centrifuged, and aliquots (50 μL) from each phase were collected and measured using a gamma counter. The experiment was performed in triplicate.

[2] = physchem; format: physicochemical; settings: pH 7.4
Protocol: as §1

[3] = test system: PC3-pip cells; experiment: in vitro binding specificity test; format: cell-based; settings: 1 h, 37 °C
Protocol: For the in vitro binding specificity test, approximately 8 × 10^5 PC3-pip cells per well were seeded 24 h before the experiment. […] Technetium-99m-labeled tracers were added to each well to reach a concentration of 2 nM. After 1 h of incubation at 37 °C, cells were washed with PBS solution, detached, and collected. Cell-associated activity was measured using a gamma counter and presented as the percentage of added activity.

[4] = target: T1, PSMA (Homo sapiens, UniProt Q04609); experiment: binding kinetics in real time on living PC3-pip cells (LigandTracer Yellow)
T1 construct: expressed in transfected cells; host or cells: PC3-pip (PSMA-transfected PC-3 prostate carcinoma cells), from Prof; Martin G. Pomper, Johns Hopkins University
Protocol: The binding kinetics of technetium-99m-labeled BQ0413, BQ0500, and BQ0501 were determined in PC3-pip cells in real-time using LigandTracer Yellow (Ridgeview Instruments AB, Uppsala, Sweden). The activity binding was recorded with 5 nM radiolabeled tracers for 150 min. After the binding kinetics were measured, the medium containing the labeled tracer was replaced with fresh medium, and the dissociation was monitored over 7 h. The association rate (k a) and the dissociation rate (k d) were computed using a 1:2 kinetic binding model in TraceDrawer software (Ridgeview Instruments AB, Uppsala, Sweden), and the equilibrium dissociation constant K D was calculated.

[5] = test system: PC3-pip cells; experiment: cellular processing (membrane-bound / internalized activity); format: cell-based; settings: 2 nM, continuous incubation, after 8 h
Protocol: To evaluate cellular processing of technetium-99m-labeled BQ0500 and BQ0501, PC3-pip cells were incubated with the radiolabeled tracer (2 nM), and at 1, 2, 4, and 8 h of continuous incubation, the membrane-bound and internalized fractions were collected as previously described using 4 M urea solution in 0.2 M glycine buffer (pH 2) to collect membrane-bound fraction and 1 N solution of NaOH to collect the internalized fraction. The activity in the samples was measured, and the percentage of membrane-bound and internalized activity was calculated. The experiments were performed in triplicate.

[6] = test system: PC3-pip xenografts; experiment: biodistribution and tumor targeting in PC3-pip tumor-bearing mice; format: in vivo
Text: The injected masses for the in vivo experiments were chosen based on the findings for [^99mTc]-Tc-BQ0413: to study the general biodistribution of radiolabeled tracers in normal mice (NMRI), 40 pmol of tracer was used to avoid blocking of PSMA-mediated uptake in kidneys and salivary glands, to study tumor targeting, 5 nmol of tracer was used to decrease uptake in PSMA-expressing organs.
PSMA-expressing PCa xenografts were implanted in BALB/c nu/nu mice by subcutaneous injection of the PC3-pip cell suspension in PBS (10^7 cells/animal in 100 μL). The average animal weight in the experiment was 18 ± 2 g. The average tumor weight was 0.4 ± 0.2 g. For in vivo specificity control, 10^7 cells/animal PSMA-negative PC-3 cells were implanted. The average animal weight was 18 ± 1 g. The average tumor weight was 0.1 ± 0.1 g. Four mice per data point were used in the in vivo experiments.
For tumor-bearing mice, each mouse was intravenously injected with 5 nmol of [^99mTc]-Tc-BQ0413, [^99mTc]-Tc-BQ0500, and [^99mTc]-Tc-BQ0501 (60 kBq; the mass of the injected compound was adjusted with an unlabeled tracer). The mice were euthanized after lethal intraperitoneal injection of ketamine/xylazine, followed by exsanguination 1 and 3 h pi, similarly to the procedure described above.

[7] = PC3-pip tumor-bearing mice, 5 nmol/mouse iv, 1 h pi
[8] = PC3-pip tumor-bearing mice, 5 nmol/mouse iv, 3 h pi
[9] = PC3-pip tumor-bearing mice, 5 nmol/mouse iv, 3 h pi, listed as [99mTc]Tc-BQ0501

T1 sequence (Q04609 whole entry): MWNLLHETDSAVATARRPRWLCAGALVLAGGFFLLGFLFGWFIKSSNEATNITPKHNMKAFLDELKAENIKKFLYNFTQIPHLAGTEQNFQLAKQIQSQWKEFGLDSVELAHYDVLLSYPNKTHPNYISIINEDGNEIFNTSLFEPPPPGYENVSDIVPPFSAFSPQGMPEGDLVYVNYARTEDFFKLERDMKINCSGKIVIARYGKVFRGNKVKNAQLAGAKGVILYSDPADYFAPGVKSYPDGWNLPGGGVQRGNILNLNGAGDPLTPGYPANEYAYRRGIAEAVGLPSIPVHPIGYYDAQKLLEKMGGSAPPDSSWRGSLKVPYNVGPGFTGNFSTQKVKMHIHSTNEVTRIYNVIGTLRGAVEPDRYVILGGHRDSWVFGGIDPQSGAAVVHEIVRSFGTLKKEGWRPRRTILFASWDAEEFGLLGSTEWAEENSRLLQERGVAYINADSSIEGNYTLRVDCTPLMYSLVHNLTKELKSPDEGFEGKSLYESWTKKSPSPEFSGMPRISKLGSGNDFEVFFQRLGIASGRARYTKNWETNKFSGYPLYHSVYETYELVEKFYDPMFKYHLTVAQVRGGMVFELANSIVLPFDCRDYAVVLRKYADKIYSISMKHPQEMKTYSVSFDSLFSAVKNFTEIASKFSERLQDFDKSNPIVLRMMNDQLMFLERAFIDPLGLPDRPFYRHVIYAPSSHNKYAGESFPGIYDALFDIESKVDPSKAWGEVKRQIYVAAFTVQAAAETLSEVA

Structure (SMILES): CC(=O)NC(CCCCNC(=O)CNC(=O)C(CO)NC(=O)C(CO)NC(=O)C(CO)NC(=O)CS)C(=O)NCCCCCCCC(=O)NC(Cc1ccc(O)cc1)C(=O)NC(Cc1ccc2ccccc2c1)C(=O)NCCCCC(NC(=O)NC(CCC(=O)O)C(=O)O)C(=O)O (centres unmarked) [[^99mTc]Tc-BQ0501, metal not drawn]
- intact tracer in PBS ([1]; PBS control, 37 °C, n = 3): 97.4 ± 0.9%
- intact tracer in murine serum ([1]; mouse, 5 µg/mL): 98.7 ± 0.6%
- logD [2]: -2.4 ± 0.1
- activity uptake by PC3-pip cells ([3]; 2 nM tracer): 62 ± 7 % of added activity
- activity uptake by PC3-pip cells after presaturation with PSMA-11 ([3]; 250-fold excess of nonlabeled PSMA-11, 2 nM tracer): significantly (p < 0.0001) decreased
- B max1 (binding maximum) ([4]; 5 nM tracer, 1:2 model (1:1 for BQ0413)): 492 CPS
- Kd ([4]; 5 nM tracer, 1:2 model (1:1 for BQ0413), read-out: K D1): 0.474 nM
- kon ([4]; 5 nM tracer, 1:2 model (1:1 for BQ0413), read-out: k a1 (association rate)): 27000 M⁻¹ s⁻¹
- koff ([4]; 5 nM tracer, 1:2 model (1:1 for BQ0413), read-out: k d1 (dissociation rate)): 1.2e-05 s⁻¹
- B max2 (binding maximum) ([4]; 5 nM tracer, 1:2 model, second interaction): 272 CPS
- Kd ([4]; 5 nM tracer, 1:2 model, second interaction, read-out: K D2): 3.6 nM
- kon ([4]; 5 nM tracer, 1:2 model, second interaction, read-out: k a2 (association rate)): 49000 M⁻¹ s⁻¹
- koff ([4]; 5 nM tracer, 1:2 model, second interaction, read-out: k d2 (dissociation rate)): 0.00016 s⁻¹
- affinity compromised in comparison with [99mTc]Tc-BQ0413 ([4]; PC3-pip cells): 3–5 fold
- Kd ([4]; as rounded in comparison table, read-out: K D1): 0.5 nM
- Kd ([4]; as rounded in comparison table, read-out: K D2): 3.6 nM
- maximum of internalized activity [5]: 42–43 % of cell-associated activity
- activity in carcass [6, 7]: 8 ± 2 ^b %IA/sample
- activity in intestines with content [6, 7]: 9 ± 1 ^b ^e %IA/sample
- activity uptake in blood [6, 7]: 1.6 ± 0.5 ^b %IA/g
- activity uptake in bone [6, 7]: 0.4 ± 0.1 ^b ^e %IA/g
- activity uptake in kidney [6, 7]: 21 ± 6 ^b %IA/g
- activity uptake in liver [6, 7]: 1.8 ± 0.7 ^b %IA/g
- activity uptake in lung [6, 7]: 1.6 ± 0.4 ^b %IA/g
- activity uptake in muscle [6, 7]: 0.3 ± 0.1 ^b %IA/g
- activity uptake in pancreas [6, 7]: 0.45 ± 0.05 ^b %IA/g
- activity uptake in salivary gland [6, 7]: 0.6 ± 0.2 ^b ^, ^e %IA/g
- activity uptake in small intestines [6, 7]: 1.4 ± 0.6 ^b ^e %IA/g
- activity uptake in spleen [6, 7]: 2.4 ± 0.5 ^b %IA/g
- activity uptake in stomach [6, 7]: 0.6 ± 0.2 ^b ^e %IA/g
- activity uptake in tumor [6, 7]: 27 ± 7 %IA/g
- tumor-to-blood ratio [6, 7]: 19 ± 8 ^b
- tumor-to-bone ratio [6, 7]: 62 ± 18 ^b ^, ^e
- tumor-to-kidney ratio [6, 7]: 1.3 ± 0.5 ^b
- tumor-to-liver ratio [6, 7]: 17 ± 7 ^b
- tumor-to-lung ratio [6, 7]: 17 ± 6 ^b
- tumor-to-muscle ratio [6, 7]: 86 ± 34 ^b
- tumor-to-pancreas ratio [6, 7]: 62 ± 24 ^b
- tumor-to-salivary gland ratio [6, 7]: 47 ± 19 ^b ^, ^e
- tumor-to-small intestines ratio [6, 7]: 22 ± 11 ^b
- tumor-to-spleen ratio [6, 7]: 12 ± 5 ^b
- tumor-to-stomach ratio [6, 7]: 46 ± 18 ^b ^, ^e
- activity in carcass [6, 8]: 3 ± 1 %IA/sample
- activity in intestines with content [6, 8]: 11.0 ± 0.5 ^e %IA/sample
- activity uptake in blood [6, 8]: 0.14 ± 0.07 %IA/g
- activity uptake in bone [6, 8]: 0.07 ± 0.03 ^e %IA/g
- activity uptake in kidney [6, 8]: 4 ± 2 ^e %IA/g
- activity uptake in liver [6, 8]: 0.18 ± 0.06 %IA/g
- activity uptake in lung [6, 8]: 0.21 ± 0.07 %IA/g
- activity uptake in muscle [6, 8]: 0.08 ± 0.04 %IA/g
- activity uptake in pancreas [6, 8]: 0.1 ± 0.1 %IA/g
- activity uptake in salivary gland [6, 8]: 0.14 ± 0.06 ^e %IA/g
- activity uptake in small intestines [6, 8]: 0.17 ± 0.03 %IA/g
- activity uptake in spleen [6, 8]: 0.3 ± 0.2 %IA/g
- activity uptake in stomach [6, 8]: 0.14 ± 0.06 %IA/g
- tumor-to-bone ratio [6, 8]: 515 ± 113 ^e
- tumor-to-kidney ratio [6, 8]: 10 ± 2 ^e
- tumor-to-liver ratio [6, 8]: 222 ± 89 ^e
- tumor-to-lung ratio [6, 8]: 178 ± 61 ^e
- tumor-to-muscle ratio [6, 8]: 504 ± 195
- tumor-to-pancreas ratio [6, 8]: 463 ± 135 ^e
- tumor-to-salivary gland ratio [6, 8]: 302 ± 146 ^e
- tumor-to-small intestines ratio [6, 8]: 209 ± 46
- tumor-to-spleen ratio [6, 8]: 121 ± 47 ^e
- tumor-to-stomach ratio [6, 8]: 287 ± 102 ^e
- activity in carcass [6, 9]: 3±1 %IA/sample
- activity in intestines with content [6, 9]: 11.0±0.5 %IA/sample
- activity uptake in blood [6, 9]: 0.14±0.07 %IA/g
- activity uptake in bone [6, 9]: 0.07±0.03 %IA/g
- activity uptake in kidney [6, 9]: 4±2 %IA/g
- activity uptake in liver [6, 9]: 0.18±0.06 %IA/g
- activity uptake in lung [6, 9]: 0.21±0.07 %IA/g
- activity uptake in muscle [6, 9]: 0.08±0.04 %IA/g
- activity uptake in pancreas [6, 9]: 0.1±0.1 %IA/g
- activity uptake in salivary gland [6, 9]: 0.14±0.06 %IA/g
- activity uptake in small intestines [6, 9]: 0.17±0.03 %IA/g
- activity uptake in spleen [6, 9]: 0.3±0.2 %IA/g
- activity uptake in stomach [6, 9]: 0.14±0.06 %IA/g
- activity uptake in tumor [6, 9]: 35±4 %IA/g
- excretion pathway ([6]; PC3-pip xenografts): predominantly renal

Source: paper PMC12519282, “Reduction of Negative Charge in Mercaptoacetyl-Based Chelators Influences the Biodistribution of Prostate-Specific Membrane Antigen-Targeting Pseudopeptides Labeled with Technetium-99m” (ACS Pharmacology & Translational Science, 2025)
